Bounds are passed on as bounds.

Sequence of PRC2 complex (EZH2 Y641F/EED/SUZ12/RbAp48/AEBP2) (Q15910 whole entry Y641F): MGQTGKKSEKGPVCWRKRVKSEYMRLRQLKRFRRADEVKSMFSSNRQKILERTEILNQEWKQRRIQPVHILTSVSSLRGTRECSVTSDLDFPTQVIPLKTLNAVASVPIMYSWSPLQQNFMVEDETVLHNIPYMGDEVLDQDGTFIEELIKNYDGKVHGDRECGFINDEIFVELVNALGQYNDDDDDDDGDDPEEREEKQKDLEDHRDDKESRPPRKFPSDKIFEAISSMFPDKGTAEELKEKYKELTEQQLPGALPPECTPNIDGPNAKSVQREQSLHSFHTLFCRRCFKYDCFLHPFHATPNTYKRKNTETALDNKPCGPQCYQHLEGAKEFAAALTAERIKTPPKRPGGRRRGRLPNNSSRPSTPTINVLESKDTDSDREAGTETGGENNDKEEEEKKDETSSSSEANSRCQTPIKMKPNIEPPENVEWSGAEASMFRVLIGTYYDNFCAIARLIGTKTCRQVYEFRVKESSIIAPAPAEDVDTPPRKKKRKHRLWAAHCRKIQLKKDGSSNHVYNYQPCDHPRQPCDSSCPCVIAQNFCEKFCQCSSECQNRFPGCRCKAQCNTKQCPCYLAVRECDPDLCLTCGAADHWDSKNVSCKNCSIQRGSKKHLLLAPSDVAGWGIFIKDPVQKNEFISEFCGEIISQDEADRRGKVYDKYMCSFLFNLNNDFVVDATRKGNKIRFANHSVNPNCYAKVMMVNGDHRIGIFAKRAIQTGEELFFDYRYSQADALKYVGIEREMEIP
Sequence of PRC2 complex (EZH2 Y641F/EED/SUZ12/RbAp48/AEBP2) (O75530 whole entry partner): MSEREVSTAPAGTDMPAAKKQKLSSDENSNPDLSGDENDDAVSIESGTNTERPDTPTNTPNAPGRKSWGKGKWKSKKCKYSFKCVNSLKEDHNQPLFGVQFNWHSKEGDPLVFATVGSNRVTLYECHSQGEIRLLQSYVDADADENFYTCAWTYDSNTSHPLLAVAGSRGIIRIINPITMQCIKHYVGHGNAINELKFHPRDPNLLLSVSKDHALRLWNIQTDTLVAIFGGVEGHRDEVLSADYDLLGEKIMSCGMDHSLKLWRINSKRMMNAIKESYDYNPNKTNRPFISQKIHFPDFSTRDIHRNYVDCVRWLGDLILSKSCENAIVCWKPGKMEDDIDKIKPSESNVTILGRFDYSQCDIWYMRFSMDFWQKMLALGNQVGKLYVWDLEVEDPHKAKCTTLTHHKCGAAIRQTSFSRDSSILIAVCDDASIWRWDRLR
Sequence of PRC2 complex (EZH2 Y641F/EED/SUZ12/RbAp48/AEBP2) (Q15022 whole entry partner): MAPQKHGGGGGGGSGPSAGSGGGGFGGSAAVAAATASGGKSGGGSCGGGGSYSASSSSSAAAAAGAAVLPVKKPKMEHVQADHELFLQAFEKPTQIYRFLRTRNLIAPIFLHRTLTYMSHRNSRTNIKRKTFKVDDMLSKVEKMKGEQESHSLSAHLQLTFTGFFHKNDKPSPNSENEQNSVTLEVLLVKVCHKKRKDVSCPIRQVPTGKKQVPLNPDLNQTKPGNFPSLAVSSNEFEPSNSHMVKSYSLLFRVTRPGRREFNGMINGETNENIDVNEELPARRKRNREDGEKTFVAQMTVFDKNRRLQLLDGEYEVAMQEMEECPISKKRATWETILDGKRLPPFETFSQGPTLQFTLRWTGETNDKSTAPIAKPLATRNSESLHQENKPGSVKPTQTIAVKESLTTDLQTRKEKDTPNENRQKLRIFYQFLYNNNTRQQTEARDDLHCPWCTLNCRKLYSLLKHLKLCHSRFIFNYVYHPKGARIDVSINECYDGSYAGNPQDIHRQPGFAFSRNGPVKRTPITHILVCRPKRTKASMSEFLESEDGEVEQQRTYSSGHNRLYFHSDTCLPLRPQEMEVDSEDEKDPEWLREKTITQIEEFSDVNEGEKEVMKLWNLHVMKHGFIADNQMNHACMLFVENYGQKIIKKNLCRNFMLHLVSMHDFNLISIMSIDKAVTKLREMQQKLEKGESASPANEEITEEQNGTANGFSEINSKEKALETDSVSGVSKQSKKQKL
Sequence of PRC2 complex (EZH2 Y641F/EED/SUZ12/RbAp48/AEBP2) (Q09028 whole entry partner): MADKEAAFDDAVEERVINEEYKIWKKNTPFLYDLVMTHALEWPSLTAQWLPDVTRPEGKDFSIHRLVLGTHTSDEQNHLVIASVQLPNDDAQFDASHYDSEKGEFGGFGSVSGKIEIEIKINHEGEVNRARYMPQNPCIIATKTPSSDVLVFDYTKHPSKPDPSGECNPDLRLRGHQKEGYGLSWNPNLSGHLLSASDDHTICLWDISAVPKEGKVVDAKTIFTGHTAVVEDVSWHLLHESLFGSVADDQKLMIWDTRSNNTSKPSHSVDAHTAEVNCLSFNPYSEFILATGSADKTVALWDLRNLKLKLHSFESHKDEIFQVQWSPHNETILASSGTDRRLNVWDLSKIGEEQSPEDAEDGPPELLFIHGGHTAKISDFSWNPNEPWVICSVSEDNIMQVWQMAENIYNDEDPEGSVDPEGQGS
Sequence of PRC2 complex (EZH2 Y641F/EED/SUZ12/RbAp48/AEBP2) (Q6ZN18 whole entry partner): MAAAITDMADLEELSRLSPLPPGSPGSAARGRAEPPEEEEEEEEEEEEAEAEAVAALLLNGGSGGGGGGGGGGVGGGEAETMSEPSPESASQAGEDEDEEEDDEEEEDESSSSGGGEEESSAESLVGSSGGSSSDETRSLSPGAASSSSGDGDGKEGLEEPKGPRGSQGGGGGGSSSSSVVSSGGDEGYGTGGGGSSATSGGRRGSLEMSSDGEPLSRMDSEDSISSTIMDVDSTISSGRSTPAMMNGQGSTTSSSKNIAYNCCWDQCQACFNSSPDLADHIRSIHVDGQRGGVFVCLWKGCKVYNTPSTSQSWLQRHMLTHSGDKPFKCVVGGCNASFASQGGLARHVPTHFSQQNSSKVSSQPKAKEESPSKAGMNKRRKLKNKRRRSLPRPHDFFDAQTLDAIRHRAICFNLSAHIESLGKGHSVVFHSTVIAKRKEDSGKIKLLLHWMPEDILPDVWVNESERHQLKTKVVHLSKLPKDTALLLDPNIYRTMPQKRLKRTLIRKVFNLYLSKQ

The first test has as its target PRC2 complex (EZH2 Y641F/EED/SUZ12/RbAp48/AEBP2) (Homo sapiens (Human), UniProt Q15910, Y641F). The test is described as follows: Activity of a compound to PRC2 complex (EZH2 Y641F), HTRF.
Settings: not given
Regarding `CCN(c1c(C)c(C(=O)NCc2c(C)cc(C)[nH]c2=O)cc2cccn12)C1CCOCC1` [Example 56, N-((4,6-dimethyl-2-oxo-1,2-dihydropyridin-3-yl)methyl)-6-methyl-5-(ethyl(tetrahydro-2H-pyran-4-yl)amino)indolizine-7-carboxamide], the IC50 is less than 100 nM.
The same measure, in the same setting: the figure for `CCN(c1c(C)c(C(=O)NCc2c(C)cc(C)[nH]c2=O)cc2cc(Br)cn12)C1CCOCC1` [Example 58, 2-bromo-N-((4,6-dimethyl-2-oxo-1,2-dihydropyridin-3-yl)methyl)-5-(ethyl(tetrahydro-2H-pyran-4-yl)amino)-6-methylindolizine-7-carboxamide] is 100 to 1000 nM; for `CCN(c1c(C)c(C(=O)NCc2c(C)cc(C)[nH]c2=O)cc2cc(Br)cn12)C1CCN(C(C)=O)CC1` [Example 62, 5-((1-acetylpiperidin-4-yl)(ethyl)amino)-2-bromo-N-((4,6-dimethyl-2-oxo-1,2-dihydropyridine-3-yl)methyl)-6-methylindolizine-7-carboxamide] it is less than 100 nM.
Still for that read-out and setting: with `Cc1cc(C)c(CNC(=O)c2cc3cncn3c(N(C)C3CCOCC3)c2C)c(=O)[nH]1` [Example 68, N-((4,6-dimethyl-2-oxo-1,2-dihydropyridin-3-yl)methyl)-6-methyl-5-(methyl(tetrahydro-2H-pyran-4-yl)amino)imidazo[1,5-a]pyridine-7-carboxamide] the figure was less than 100 nM.

Still in this test, the particulars now being: read-out: IC50 (EZH2_Y641F); EZH2 Y641F PRC2 complex, HTRF; class symbols.
`CCN(c1c(C)c(C(=O)NCc2c(C)cc(C)[nH]c2=O)cc2cc(Br)cn12)C1CCOCC1` [Example 57]: the IC50 fell in the range of 100 to 1000 nM.
On to `CCN(c1c(C)c(C(=O)NCc2c(C)cc(C)[nH]c2=O)cc2cc(Br)cn12)C1CNC1` [Example 59], for which the half-inhibitory concentration (IC50) fell in the range of 1000 to 10000 nM.
On the same count and under the same terms, with `CCN(c1c(C)c(C(=O)NCc2c(C)cc(C)[nH]c2=O)cc2cc(Br)cn12)C1CCNCC1` [Example 61, 2-bromo-N-((4,6-dimethyl-2-oxo-1,2-dihydropyridin-3-yl)methyl)-5-(ethyl(piperidin-4-yl)amino)-6-methylindolizine-7-carboxamide] the figure was 100 to 1000 nM; with `CCN(c1c(C)c(C(=O)NCc2c(C)cc(C)[nH]c2=O)cc2cc(-c3ccccc3)cn12)C1CCOCC1` [Example 63], 100 to 1000 nM.
The same measure, in the same setting: the figure for `CCN(c1c(C)c(C(=O)NCc2c(C)cc(C)[nH]c2=O)cc2cc(-c3ccnn3C)cn12)C1CCOCC1` [Example 64, N-((4,6-dimethyl-2-oxo-1,2-dihydropyridin-3-yl)methyl)-5-(ethyl(tetrahydro-2H-pyran-4-yl)amino)-6-methyl-2-(4-morpholinephenyl)indolizine-7-carboxamide] is 100 to 1000 nM; for `CCN(c1c(C)c(C(=O)NCc2c(C)cc(C)[nH]c2=O)cc2cc(-c3ccnn3C)cn12)C1CCOCC1` [Example 65, N-((4,6-dimethyl-2-oxo-1,2-dihydropyridin-3-yl)methyl)-5-(ethyl(tetrahydro-2H-pyran-4-yl)amino)-6-methyl-2-(1-methyl-1H-pyrazol-5-yl)indolizin-7-carboxamide] it is less than 100 nM; for `CCN(c1c(C)c(C(=O)NCc2c(C)cc(C)[nH]c2=O)cc2cc(-c3cnn(C)c3)cn12)C1CCOCC1` [Example 66, N-((4,6-dimethyl-2-oxo-1,2-dihydropyridin-3-yl)methyl)-5-(ethyl(tetrahydro-2H-pyran-4-yl)amino)-6-methyl-2-(1-methyl-1H-pyrazol-4-yl)indolizin-7-carboxamide] it is less than 100 nM.
Turning to `CCN(c1c(C)c(C(=O)NCc2c(C)cc(C)[nH]c2=O)cc2cc(-c3nccs3)cn12)C1CCOCC1` [Example 67, N-((4,6-dimethyl-2-oxo-1,2-dihydropyridin-3-yl)methyl)-5-(ethyl(tetrahydro-2H-pyran-4-yl)amino)-6-methyl-2-(thiazol-2-yl)indolizin-7-carboxamide], the concentration for half-maximal inhibition (IC50) lay in the range of 100 to 1000 nM.
Same read-out and setting: the figure for `Cc1cc(C)c(CNC(=O)c2cc3cc(Cl)cn3c(C(C)N3CCOCC3)c2C)c(=O)[nH]1` (stereo not shown) [Example 69, 2-chloro-N-((4,6-dimethyl-2-oxo-1,2-dihydropyridin-3-yl)methyl)-6-methyl-5-(1-morphinolinylethyl)indolizine-7-carboxamide] is less than 100 nM.

What is called IC50 is the concentration that gives 50% inhibition.

(Values after US10968215B2 (SHANGHAI HAIHE PHARMACEUTICAL CO., LTD., priority 2016, dated 2021).)
